Data on three compounds can be found in ChEMBL document CHEMBL1201862, “PubChem BioAssay data set” (2004).

A word on the IC50: it is the concentration that inhibits the measured activity by half.

The source made the active and inactive calls. Cut-off read from the data, not from the text of the source: actives have a measured IC50 and inactives only a lower limit.

Envelope glycoprotein gp160, sequence (Q6QLK5 whole entry, the tested form may be a part): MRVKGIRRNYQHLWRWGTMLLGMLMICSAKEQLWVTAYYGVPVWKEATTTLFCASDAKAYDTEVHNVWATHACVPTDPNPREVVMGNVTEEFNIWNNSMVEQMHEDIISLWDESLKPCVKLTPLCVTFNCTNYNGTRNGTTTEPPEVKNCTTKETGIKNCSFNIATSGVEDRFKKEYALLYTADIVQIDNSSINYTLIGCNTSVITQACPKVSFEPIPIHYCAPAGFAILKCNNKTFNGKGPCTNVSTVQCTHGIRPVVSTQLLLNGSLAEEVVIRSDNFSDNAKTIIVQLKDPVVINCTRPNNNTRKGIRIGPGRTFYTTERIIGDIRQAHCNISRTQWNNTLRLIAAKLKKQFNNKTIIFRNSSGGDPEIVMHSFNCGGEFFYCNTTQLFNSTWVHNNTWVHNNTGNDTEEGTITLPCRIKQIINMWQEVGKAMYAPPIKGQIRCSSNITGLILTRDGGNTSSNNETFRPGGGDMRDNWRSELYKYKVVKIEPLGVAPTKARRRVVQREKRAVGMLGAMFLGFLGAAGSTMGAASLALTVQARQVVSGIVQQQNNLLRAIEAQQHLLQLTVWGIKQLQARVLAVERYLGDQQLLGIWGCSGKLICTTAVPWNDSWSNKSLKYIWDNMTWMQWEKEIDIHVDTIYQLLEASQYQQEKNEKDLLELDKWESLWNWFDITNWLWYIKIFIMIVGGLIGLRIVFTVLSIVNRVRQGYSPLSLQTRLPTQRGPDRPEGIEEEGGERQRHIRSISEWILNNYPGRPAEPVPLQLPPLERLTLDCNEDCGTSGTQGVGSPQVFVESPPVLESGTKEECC

The experiment has as its target Envelope glycoprotein gp160 (Human immunodeficiency virus 1, UniProt Q6QLK5). The experiment is described as follows: cell-free HIV fusion peptide-binding blockers – biochemical, uHTS, fluorescence dequenching, […] (AID 1986).
As for `CCOc1ccc(NC(=NCc2ccc3c(c2)OCO3)SC2CC(=O)N(c3ccc(C(=O)O)cc3)C2=O)cc1` (stereo not drawn), the half-maximal inhibitory concentration (IC50) was 25.9 µM (active). Consider `COc1cc(/C=C2\SC(=S)NC2=O)ccc1OS(=O)(=O)c1ccccc1`, for which the half-inhibitory concentration (IC50) is 18 µM (active).

`CC(Oc1ccc(Cl)cc1Cl)C(=O)Nc1ccc(S(=O)(=O)Nc2cnc3ccccc3n2)cc1` (stereo not drawn): the half-inhibitory concentration (IC50) is 15.7 µM (active).
